Assays:
[1] = target: T1, PLK1 kinase domain (Homo sapiens, UniProt P53350); test: Assay for Inhibition of PLK1 (SPA enzyme activity); assay type: biochemical; conditions: 2 μM ATP, read-out: Ave pIC50 PLK Enzyme Inhibition (converted)
T1 construct: made in house; host or cells: baculovirus-infected T. ni insect cells

[2] = tested on: lung (H460) tumor cell line; test: Methylene Blue Growth Inhibition Assay, H460; assay type: cell-based; conditions: Homo sapiens, NCI-H460, 72 h; Cell Line H460, 3 days; read-out: MeB IC50
Method in brief: (§1)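 Methylene blue dye retained by cells after a 3-day, 37° C compound incubation in DMEM/10% FBS (0.3% DMSO) served as the biomass readout at 620 nm. IC50 values were interpolated by nonlinear regression against vehicle wells.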

[3] = tested on: colon (HCT116) tumor cell line; test: Methylene Blue Growth Inhibition Assay, HCT116; assay type: cell-based; conditions: Homo sapiens, HCT-116, 72 h; Cell Line HCT116, 3 days; read-out: MeB IC50
Method in brief: (§2)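 Growth inhibition is measured as methylene blue-stained biomass (OD 620 nm) after 3 days of compound treatment, relative to vehicle controls. Cells grow in high-glucose DMEM with 10% FBS and 0.3% final DMSO; IC50 comes from nonlinear regression.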

[4] = tested on: Normal Human foreskin fibroblasts (HFF); test: Methylene Blue Growth Inhibition Assay, HFF; assay type: cell-based; conditions: 72 h, Cell Line HFF, 3 days, read-out: MeB IC50
Method in brief: as §1

[5] = tested on: breast tumor (MCF7) cell line; test: Methylene Blue Growth Inhibition Assay, MCF7; assay type: cell-based; conditions: Homo sapiens, 72 h; Cell Line MCF7, 3 days; read-out: MeB IC50
Method in brief: as §2

[6] = tested on: prostate (PC3) tumor cell line; test: Methylene Blue Growth Inhibition Assay, PC3; assay type: cell-based; conditions: Homo sapiens, 72 h; Cell Line PC3, 3 days; read-out: MeB IC50
Method in brief: as §2

[7] = tested on: colon (RKO) tumor cell line; test: Methylene Blue Growth Inhibition Assay, RKO; assay type: cell-based; conditions: Homo sapiens, 72 h, 3 days, read-out: MeB IC50
Method in brief: as §1

T1 sequence (P53350 21-346): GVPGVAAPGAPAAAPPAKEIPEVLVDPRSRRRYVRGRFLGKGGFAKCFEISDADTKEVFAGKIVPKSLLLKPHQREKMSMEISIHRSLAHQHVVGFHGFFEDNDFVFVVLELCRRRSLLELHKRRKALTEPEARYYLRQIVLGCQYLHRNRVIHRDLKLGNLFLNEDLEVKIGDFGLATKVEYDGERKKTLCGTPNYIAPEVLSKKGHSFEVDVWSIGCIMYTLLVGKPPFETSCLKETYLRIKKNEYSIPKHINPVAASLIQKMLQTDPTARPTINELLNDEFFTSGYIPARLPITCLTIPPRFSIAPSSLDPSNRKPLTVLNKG

`COc1cc2ncn(-c3cc(OCCN4CCOCC4)c(C(N)=O)s3)c2cc1OC` [Example 113, 5-(5,6-Dimethoxy-1H-benzimidazol-1-yl)-3-(2-morpholin-4-ylethoxy)thiophene-2-carboxamide] showed an IC50 [1] of 0.1 to 10 µM, an IC50 [2] of over 10 µM and an IC50 [3] of over 10 µM. It also gave an IC50 [4] of over 10 µM, an IC50 [5] of over 10 µM and an IC50 [6] of over 10 µM. It also gave an IC50 [7] of over 10 µM.

With `NC(=O)c1sc(-n2cnc3ccccc32)cc1OCc1ccccc1[N+](=O)[O-]` [Example 117, 5-(1H-Benzimidazol-1-yl)-3-[(2-nitrobenzyl)oxy]thiophene-2-carboxamide] the IC50 [1] was under 0.1 µM, the IC50 [2] was under 1 µM and the IC50 [3] was under 1 µM. For the same compound, the IC50 [4] was over 10 µM, the IC50 [5] was under 1 µM and the IC50 [6] was 1 to 10 µM. The IC50 [7] was under 1 µM.

For `COc1ccc2ncn(-c3cc(OCc4ccccc4C(F)(F)F)c(C(N)=O)s3)c2c1` [Example 118], the IC50 [1] was under 0.1 µM, the IC50 [2] was under 1 µM and the IC50 [3] was 1 to 10 µM. It also gave an IC50 [4] of 1 to 10 µM, an IC50 [5] of under 1 µM and an IC50 [6] of over 10 µM. It also gave an IC50 [7] of under 1 µM.

`NC(=O)c1sc(-n2cnc3ccc(C(F)(F)F)cc32)cc1OCc1ccccc1Br` [Example 119, 3-[(2-Bromobenzyl)oxy]-5-[6-(trifluoromethyl)-1H-benzimidazol-1-yl]thiophene-2-carboxamide] gave an IC50 [1] of under 0.1 µM, an IC50 [2] of 1 to 10 µM and an IC50 [3] of 1 to 10 µM. The IC50 [4] was over 10 µM, the IC50 [5] was 1 to 10 µM and the IC50 [6] was over 10 µM. The IC50 [7] was 1 to 10 µM.

In the case of `CS(=O)(=O)Nc1ccc2ncn(-c3cc(OCc4ccccc4C(F)(F)F)c(C(N)=O)s3)c2c1` [Example 122, 5-{6-[(Methylsulfonyl)amino]-1H-benzimidazol-1-yl}-3-{[2-(trifluoromethyl)benzyl]-oxy}thiophene-2-carboxamide], the IC50 [1] is reported as under 0.1 µM, the IC50 [2] is reported as 1 to 10 µM and the IC50 [3] is reported as 1 to 10 µM. It also gave an IC50 [4] of over 10 µM, an IC50 [5] of 1 to 10 µM and an IC50 [6] of over 10 µM. It also gave an IC50 [7] of 1 to 10 µM.

For `NC(=O)c1sc(-n2cnc3cc4c(cc32)OCCO4)cc1OCc1ccccc1C(F)(F)F` [Example 123, 5-(6,7-Dihydro-1H-[1,4]dioxino[2,3f]benzimidazol-1-yl)-3-{[2-(trifluoromethyl)benzyl]-oxy}thiophene-2-carboxamide], the IC50 [1] was under 0.1 µM, the IC50 [2] was 1 to 10 µM and the IC50 [3] was 1 to 10 µM. It also gave an IC50 [4] of 1 to 10 µM, an IC50 [5] of 1 to 10 µM and an IC50 [6] of over 10 µM. The IC50 [7] was 1 to 10 µM.

With `CS(=O)(=O)N1CCC(COc2cc(-n3cnc4cc5c(cc43)OCCO5)sc2C(N)=O)CC1` [Example 124, 5-(6,7-Dihydro-1H-[1,4]dioxino[2,3-f]benzimidazol-1-yl)-3-{[1-(methylsulfonyl)-piperidin-4-yl]methoxy}thiophene-2-carboxamide] the IC50 [1] was 0.1 to 10 µM, the IC50 [2] was over 10 µM and the IC50 [3] was over 10 µM. It also gave an IC50 [4] of over 10 µM, an IC50 [5] of over 10 µM and an IC50 [6] of over 10 µM. The IC50 [7] was over 10 µM.

For `NC(=O)c1ccc2c(c1)ncn2-c1cc(OCc2ccccc2C(F)(F)F)c(C(N)=O)s1` [Example 125, 1-[5-(Aminocarbonyl)-4-({[2-(trifluoromethyl)phenyl]methyl}oxy)-2-thienyl]-1H-benzimidazole-5-carboxamide], the IC50 [1] was under 0.1 µM, the IC50 [2] was 1 to 10 µM and the IC50 [3] was 1 to 10 µM. It also gave an IC50 [4] of over 10 µM, an IC50 [5] of 1 to 10 µM and an IC50 [6] of over 10 µM. For the same compound, the IC50 [7] was 1 to 10 µM.

Compound `COc1ccc(COc2cc(-n3cnc4cc(OC)c(OC)cc43)sc2C(N)=O)cc1` [Example 128, 5-(5,6-Dimethoxy-1H-benzimidazol-1-yl)-3-[(4-methoxybenzyl)oxy]thiophene-2-carboxamide] has an IC50 [1] of 0.1 to 10 µM, an IC50 [2] of 1 to 10 µM and an IC50 [3] of over 10 µM. For the same compound, the IC50 [4] was over 10 µM, the IC50 [5] was 1 to 10 µM and the IC50 [6] was over 10 µM. It also gave an IC50 [7] of 1 to 10 µM.

For `NC(=O)c1sc(-n2cnc3ccccc32)cc1C#Cc1ccccc1` [Example 129, 5-(1H-Benzimidazol-1-yl)-3-(phenylethynyl)thiophene-2-carboxamide], the IC50 [1] was 0.1 to 10 µM, the IC50 [2] was over 10 µM and the IC50 [3] was over 10 µM. It also gave an IC50 [4] of over 10 µM, an IC50 [5] of over 10 µM and an IC50 [6] of over 10 µM. For the same compound, the IC50 [7] was over 10 µM.

Work on `NC(=O)c1sc(-n2cnc3ccccc32)cc1CCc1ccccc1` [Example 130, 5-(1H-Benzimidazol-1-yl)-3-(2-phenylethyl)thiophene-2-carboxamide] yielded an IC50 [1] of 0.1 to 10 µM, an IC50 [2] of over 10 µM and an IC50 [3] of 1 to 10 µM. It also gave an IC50 [4] of over 10 µM, an IC50 [5] of 1 to 10 µM and an IC50 [6] of over 10 µM. It also gave an IC50 [7] of 1 to 10 µM.

For `CN(c1ccccc1)c1cc(-n2cnc3ccccc32)sc1C(N)=O` [Example 131, 5-(1H-Benzimidazol-1-yl)-3-[methyl(phenyl)amino]thiophene-2-carboxamide], the IC50 [1] was 0.1 to 10 µM, the IC50 [2] was 1 to 10 µM and the IC50 [3] was 1 to 10 µM. It also gave an IC50 [4] of over 10 µM, an IC50 [5] of 1 to 10 µM and an IC50 [6] of over 10 µM. It also gave an IC50 [7] of 1 to 10 µM.

In the case of `NC(=O)c1sc(-n2cnc3ccccc32)cc1NS(=O)(=O)c1ccccc1` [Example 132, 5-(1H-Benzimidazol-1-yl)-3-[(phenylsulfonyl)amino]thiophene-2-carboxamide], the IC50 [1] is reported as under 0.1 µM, the IC50 [2] is reported as over 10 µM and the IC50 [3] is reported as over 10 µM. The IC50 [4] was over 10 µM, the IC50 [5] was over 10 µM and the IC50 [6] was over 10 µM. The IC50 [7] was over 10 µM.

Compound `NC(=O)c1sc(-n2cnc3ccccc32)cc1NCc1ccccc1C(F)(F)F` [Example 133, 5-(1H-Benzimidazol-1-yl)-3-{[2-(trifluoromethyl)benzyl]amino}-thiophene-2-carboxamide] has an IC50 [1] of 0.1 to 10 µM, an IC50 [2] of over 10 µM and an IC50 [3] of 1 to 10 µM. It also gave an IC50 [4] of over 10 µM, an IC50 [5] of over 10 µM and an IC50 [6] of over 10 µM. For the same compound, the IC50 [7] was 1 to 10 µM.

`COc1cc2ncn(-c3cc(OCc4ccccc4C(F)(F)F)c(C(N)=O)s3)c2cc1OCCCN(C)C` [Example 135, 5-[6-{[3-(Dimethylamino)propyl]oxy}-5-(methyloxy)-1H-benzimidazol-1-yl]-3-({[2-(trifluoromethyl)phenyl]methyl}oxy)-2-thiophenecarboxamide] gave an IC50 [1] of under 0.1 µM, an IC50 [2] of under 1 µM and an IC50 [3] of under 1 µM. It also gave an IC50 [4] of 1 to 10 µM, an IC50 [5] of under 1 µM and an IC50 [6] of 1 to 10 µM. The IC50 [7] was under 1 µM.

For `COc1cc2ncn(-c3cc(OCc4ccccc4C(F)(F)F)c(C(N)=O)s3)c2cc1OCCN1CCN(C)CC1` [Example 136, 5-(5-(Methyloxy)-6-{[2-(4-methyl-1-piperazinyl)ethyl]oxy}-1H-benzimidazol-1-yl)-3-({[2-(trifluoromethyl)phenyl]methyl}oxy)-2-thiophenecarboxamide], the IC50 [1] was under 0.1 µM, the IC50 [2] was under 1 µM and the IC50 [3] was under 1 µM. For the same compound, the IC50 [4] was 1 to 10 µM, the IC50 [5] was under 1 µM and the IC50 [6] was 1 to 10 µM. The IC50 [7] was under 1 µM.

`COc1cc2ncn(-c3cc(OCc4ccccc4C(F)(F)F)c(C(N)=O)s3)c2cc1OCCN1CCOCC1` [Example 137, 5-(5-(Methyloxy)-6-{[2-(4-morpholinyl)ethyl]oxy}-1H-benzimidazol-1-yl)-3-({[2-(trifluoromethyl)phenyl]methyl}oxy)-2-thiophenecarboxamide] showed an IC50 [1] of under 0.1 µM, an IC50 [2] of 1 to 10 µM and an IC50 [3] of under 1 µM. It also gave an IC50 [4] of over 10 µM, an IC50 [5] of 1 to 10 µM and an IC50 [6] of 1 to 10 µM. For the same compound, the IC50 [7] was 1 to 10 µM.

Compound `NC(=O)c1sc(-n2cnc3ccc(OCCN4CCOCC4)cc32)cc1OCc1ccccc1C(F)(F)F` [Example 138, 5-[6-(2-Morpholin-4-ylethoxy)-1H-benzimidazol-1-yl]-3-{[2-(trifluoromethyl)benzyl]oxy}thiophene-2-carboxamide] has an IC50 [1] of under 0.1 µM, an IC50 [2] of under 1 µM and an IC50 [3] of 1 to 10 µM. The IC50 [4] was 1 to 10 µM, the IC50 [5] was 1 to 10 µM and the IC50 [6] was over 10 µM. It also gave an IC50 [7] of under 1 µM.

Compound `NC(=O)c1sc(-n2cnc3ccc(OCCN4CCCC4)cc32)cc1OCc1ccccc1C(F)(F)F` [Example 139, 5-[6-(2-Pyrrolidin-1-ylethoxy)-1H-benzimidazol-1-yl]-3-{[2-(trifluoromethyl)benzyl]oxy}thiophene-2-carboxamide] has an IC50 [1] of under 0.1 µM, an IC50 [2] of 1 to 10 µM and an IC50 [3] of 1 to 10 µM. It also gave an IC50 [4] of over 10 µM, an IC50 [5] of 1 to 10 µM and an IC50 [6] of 1 to 10 µM. For the same compound, the IC50 [7] was under 1 µM.

`NC(=O)c1sc(-n2cnc3cc(F)c(OCCN4CCOCC4)cc32)cc1OCc1ccccc1C(F)(F)F` [Example 140, 5-[5-Fluoro-6-(2-morpholin-4-ylethoxy)-1H-benzimidazol-1-yl]-3-{[2-(trifluoromethyl)benzyl]oxy}thiophene-2-carboxamide] was tested, and the IC50 [1] was under 0.1 µM, the IC50 [2] was 1 to 10 µM and the IC50 [3] was 1 to 10 µM. It also gave an IC50 [4] of over 10 µM, an IC50 [5] of 1 to 10 µM and an IC50 [6] of 1 to 10 µM. It also gave an IC50 [7] of under 1 µM.

Work on `COc1cc2ncn(-c3cc(OCc4ccccc4C(F)(F)F)c(C(N)=S)s3)c2cc1OC` [Example 145] yielded an IC50 [1] of under 0.1 µM, an IC50 [2] of over 10 µM and an IC50 [3] of over 10 µM. It also gave an IC50 [4] of over 10 µM, an IC50 [5] of over 10 µM and an IC50 [6] of over 10 µM. The IC50 [7] was over 10 µM.
